What was measured:
Type in all cases: cell-based
β-galactosidase = β-galactosidase activity in CHO-Gal control cells
Method: β-galactosidase Specific Activity--In vitro β-galactosidase activity was measured using the substrate, o-nitrophenyl-β-D-galactopyranoside. Specific activities were calculated using protein concentration values.
To confirm that the reduction in HMGal activity was the result of a regulatory function specifically targeting the membrane domain of HMGal, the effects of farnesyl acetate on β-galactosidase activity were measured in vitro for both CHO-HMGal cells and CHO-Gal cells. The CHO-Gal cells had been stably transfected with a construct identical to the HMGal construct (using the same vector, promoter, and 5' and 3' flanking regions) except that the construct in the CHO-Gal cells codes for a soluble β-galactosidase protein instead of the HMGal fusion protein with the membrane domain of HMG-CoA reductase. In this experiment, the CHO-Gal cells served to control for any artifacts farnesyl acetate might cause in the β-galactosidase assay or any nonspecific effects farnesyl acetate might have on the rates of protein synthesis or degradation.

HMG-CoA reductase [1] = experiment: HMG-CoA reductase synthesis rate ([35S]methionine incorporation); settings: 10 μg/ml
Method: (§1) Measurement of HMGal and HMG-CoA Reductase Synthesis Rates Cells plated into 60×15 mm dishes were grown in 5% LPS MEM with 0.25 mg/ml active geneticin for 24 hours. These cells were washed with PBS and grown for 24 hours in 5% LPS MEM supplemented with 0.25 mg/ml active geneticin, 10 μM compactin and 0.1 mM mevalonate. After 24 hours, the medium was removed, the cells were washed with PBS and the medium was replaced with methionine-free MEM supplemented with 5% LPS, 250 μg/ml of active geneticin, 10 μM compactin, and 0.1 mM mevalonate. In addition, 20 mM mevalonate or 10 μg/ml farnesyl acetate was included in those plates previously treated with these compounds. […] Cells were washed, lysed and the HMGal and HMG-CoA reductase proteins were immunoprecipitated, subjected to SDS-PAGE and quantified. […]
(§2) Farnesyl compounds reduce translation and stimulate degradation of HMG-CoA reductase and HMGal A reduction in HMGal specific activity triggered by the farnesyl compounds could have been the result of a decrease in HMGal synthesis, an increase in HMGal degradation, or a combination of changes in both the synthesis and degradation rates. In order to test whether the farnesyl compounds impact synthesis, the rates of HMGal, HMG-CoA reductase, and total cellular protein synthesis were measured by [^35 S]methionine incorporation in the presence and absence of 10 μg/ml farnesyl acetate.

total cellular protein = experiment: Total cellular protein synthesis (TCA-precipitable counts); settings: 10 μg/ml
Method: as §1, §2

HMG-CoA reductase [2] = experiment: HMG-CoA reductase degradation rate (pulse-chase); settings: 10 μg/ml during chase; untreated 9.3 hours
Method: (§3) Measurement of HMGal and HMG-CoA Reductase Degradation Rates Cells grown in 60×15 mm dishes were washed once with ice-cold PBS and starved for 1 hour in 1 ml of methionine-free MEM supplemented with 5% LPS, 250 μg/ml of active geneticin, 10 μM compactin, and 0.1 mM mevalonate. These cells were radio-labeled for 2 hours in 300 μl of the methionine-free starvation medium containing 100 μCi of Tran^35 S-label (>1,000 Ci/mmol). Cells were incubated in an MEM-based chase medium containing 2 mM methionine, 5% LPS, 250 μg/ml of active geneticin, 10 μM compactin, and 0.1 mM mevalonate. During the chase period, some plates also had either 20 mM mevalonate, 10 μg/ml farnesyl acetate or 10 μg/ml ethyl farnesyl ether added to them as indicated in the figure legend. Following the chase, cells were washed, lysed and the HMGal and HMG-CoA reductase proteins were immunoprecipitated, subjected to SDS-PAGE and quantified.
(§4) In order to test whether the farnesyl compounds impact degradation, the rates of degradation for HMGal, HMG-CoA reductase, and total cellular protein were measured in the presence and absence of 10 μg/ml farnesyl acetate and ethyl farnesyl ether.

HMGal = HMGal degradation rate (pulse-chase); settings: 10 μg/ml during chase; untreated 6.4 hours
Method: as §3, §4

cholesterol biosynthesis = experiment: [3H]acetate incorporation into cholesterol in CHO-HMGal cells
Method: (§5) Thin Layer Chromatography--TLC was performed using Analtech 250 μm silica gel G plates with a hexanes/diethyl ether (1:1) solvent system. Lipid standards were visualized by iodine staining. Bands were scraped from the plate and their radioactivity was measured.
(§6) Quantification of Radioactivity--Samples were suspended in 4 ml of scintillation fluid (Cytoscint from ICN). The radioactivity of the samples was measured using a Beckman LS-7500 scintillation counter.
Subsequently, the cells were labeled for 1,2, and 4 hours with [^3 H]acetate and harvested. The non-saponifiable lipid fraction from each cell type was extracted and separated by TLC. The radioactivity that co-migrated with cholesterol was measured and normalized for the amount of cellular protein.
Farnesyl acetate and ethyl farnesyl ether were only present during the labeling period so that any reduction in incorporation into cholesterol would be the result of inhibition and not a down regulation in HMG-CoA reductase.

[3] = test system: cholesterol biosynthetic pathway; experiment: TLC distribution of [3H]acetate-derived non-saponifiable lipids (site of metabolic block); design: radioactivity in the cell-derived fraction co-migrating with lanosterol / radioactivity in the cell-derived fraction co-migrating with squalene / radioactivity in the cell-derived fraction co-migrating with cholesterol / remaining radioactivity in the cell-derived fraction scattered throughout the rest of the TLC lane: concentration or dose not given beside the values
Method: Lipid Saponification and Extraction Procedure Saponification and extraction of lipids from cell and media samples was performed as previously described in Bradfute, et al. (1992) J.B.C. 267:18308-18314.
as §5, §6
To determine tile site of tile metabolic block caused by farnesyl acetate and ethyl farnesyl ether, the non-saponifiable lipids from cells grown in the presence of the farnesyl compounds were examined for the accumulation of intermediates in the cholesterol biosynthetic pathway. The cells were only labeled for 1 hour and only treated with the farnesyl compounds during the labeling period; so that any intermediates which accumulated would be as a result of the inhibitory effects of the farnesol compounds and not subsequent regulatory effects on HMG-CoA reductase. CHO-HMGal cells were incubated with [^3 H]acetate and either farnesyl acetate, ethyl farnesyl ether, or no additive. The non-saponifiable lipids were isolated from both the cell, and the medium and separated by TLC.

[4] = 1 hour labeling with [3H]acetate, compound only during labeling

CC(=O)OCC=C(C)CCC=C(C)CCC=C(C)C [farnesyl acetate]
change of β-galactosidase activity of CHO-Gal cells (β-galactosidase; 10 μg/ml): not changed significantly | change of β-galactosidase activity of CHO-Gal cells (β-galactosidase; 20 μg/ml): essentially unchanged | reduction in the rate of HMG-CoA reductase synthesis (HMG-CoA reductase [1]): 60% | effect on total protein synthesis (TCA-precipitable counts) (total cellular protein): Neither farnesyl acetate nor mevalonate have a significant effect | half-life of HMG-CoA reductase (HMG-CoA reductase [2]): 3.6 h | reduction of the half-life of HMG-CoA reductase (HMG-CoA reductase [2]): 60% | half-life of HMGal (HMGal): 3.9 h | reduction of the half-life of HMGal (HMGal): 40% | reduction in [3H]acetate incorporation into cholesterol (cholesterol biosynthesis; 24 hours pretreatment, then labeled 1, 2 and 4 hours, CHO-HMGal cells): 80% | reduction in [3H]acetate incorporation into cholesterol (cholesterol biosynthesis; compound present only during the labeling period, no pretreatment): 89% | radioactivity in the cell-derived fraction co-migrating with cholesterol [3, 4]: 4% | radioactivity in the cell-derived fraction co-migrating with lanosterol [3, 4]: 74% | radioactivity in the cell-derived fraction co-migrating with squalene [3, 4]: 9% | remaining radioactivity in the cell-derived fraction scattered throughout the rest of the TLC lane [3, 4]: 13% | total non-saponifiable radioactivity found in the medium ([3]; untreated 6%): 12% | total non-saponifiable radioactivity found in the cells ([3]; untreated 94%): 88% | increase in media-derived material co-migrating with farnesol ([3]; versus untreated sample): ~3 fold

Reference: patent US5475029A, “Farnesyl compounds as cholesterol lowering agents” (The Board of Trustees of the Leland Stanford Junior …, priority 1993, dated 1995)
